{"source": "patent US20260053932A1", "about": "“COMPOUNDS AND METHODS FOR THE TARGETED DEGRADATION OF ANDROGEN RECEPTOR AND ASSOCIATED METHODS OF USE” (Arvinas Operations, Inc., priority 2020, published 2026)", "system": "androgen receptor (AR) in LNCaP and/or VCaP cells", "assay": "Androgen Receptor ELISA assay (AR degradation)", "format": "cell-based", "outline": "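VCaP cells grown ≥3 days, then treated 5 h with compound in media containing 1 nM R1881 (10× stock). Cells lysed and AR quantified by sandwich ELISA (mouse AR detection Ab, HRP anti-mouse, TMB). DC50 and Dmax derived from AR degradation.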", "key": {"[1]": {"conditions": "LNCaP and/or VCaP cells, 5 hours incubation, media with R1881, read-out: DC50 Code* (degradation of AR ELISA)"}, "[2]": {"conditions": "degradation of AR ELISA in LNCaP and/or VCaP cells, Table 2C, read-out: DC50 Code*"}}, "note": "Read-outs that look alike come from different tables or passages of the source."}
{"smiles": "CCOc1cc(O[C@H]2CC[C@H](NC(=O)c3cnc(N4CC(CN(C(C)C)[C@H]5C[C@H](Oc6ccc7c(c6)C(=O)N(C6CCC(=O)NC6=O)C7=O)C5)C4)nc3)CC2)ccc1C#N", "note": "(stereo partly shown) [Compound 70, N-((1r,4r)-4-(4-cyano-3-ethoxyphenoxy)cyclohexyl)-2-(3-((((1r,3r)-3-((2-(2,6-dioxopiperidin-3-yl)-1,3-dioxoisoindolin-5-yl)oxy)cyclobutyl) (isopropyl)amino)methyl)azetidin-1-yl)pyrimidine-5-carboxamide]", "values": [{"measurement": "DC50", "setting": "[1]", "result": "1 to 10", "unit": "nM"}]}
{"smiles": "N#Cc1ccc(O[C@H]2CC[C@H](NC(=O)c3ccn(C4CCC(CN5CCN(c6ccc7c(c6)CN(C6CCC(=O)NC6=O)C7=O)CC5)CC4)n3)CC2)cc1Cl", "note": "(stereo partly shown) [Compound 71, N-((1r,4r)-4-(3-chloro-4-cyanophenoxy)cyclohexyl)-1-(4-((4-(2-(2,6-dioxopiperidin-3-yl)-1-oxoisoindolin-5-yl)piperazin-1-yl)methyl)cyclohexyl)-1H-pyrazole-3-carboxamide]", "values": [{"measurement": "DC50", "setting": "[1]", "result": "1 to 10", "unit": "nM"}]}
{"smiles": "CC1(C)[C@H](NC(=O)c2ccn([C@H]3CC[C@H](CCCOc4ccc5c(c4)C(=O)N(C4CCC(=O)NC4=O)C5=O)CC3)n2)C(C)(C)[C@H]1Oc1ccc(C#N)c(Cl)c1", "note": "(stereo partly drawn) [Compound 72, N-((1r,3R)-3-(3-chloro-4-cyanophenoxy)-2,2,4,4-tetramethylcyclobutyl)-1-((1r,4R)-4-(3-((2-(2,6-dioxopiperidin-3-yl)-1,3-dioxoisoindolin-5-yl)oxy)propyl)cyclohexyl)-1H-pyrazole-3-carboxamide]", "values": [{"measurement": "DC50", "setting": "[1]", "result": "> 100", "unit": "nM"}]}
{"smiles": "CC(C)N(CC1CCN(c2cnc(C(=O)N[C@H]3CC[C@H](Oc4ccc(C#N)c(Cl)c4)CC3)cn2)CC1)[C@H]1C[C@H](Oc2ccc3c(c2)C(=O)N(C2CCC(=O)NC2=O)C32CC2)C1", "note": "(stereo partly shown) [Compound 73, N-((1r,4r)-4-(3-chloro-4-cyanophenoxy)cyclohexyl)-5-(4-((((1r,3r)-3-((2′-(2,6-dioxopiperidin-3-yl)-3′-oxospiro[cyclopropane-1,1′-isoindolin]-5′-yl)oxy)cyclobutyl) (isopropyl)amino)methyl)piperidin-1-yl)pyrazine-2-carboxamide]", "values": [{"measurement": "DC50", "setting": "[1]", "result": "> 100", "unit": "nM"}]}
{"smiles": "CN1C(=O)CCC(N2C(=O)c3cc(F)c(N4CCN(CC5CCN(c6ccc(C(=O)N[C@H]7CC[C@H](Oc8ccc(C#N)c(Cl)c8)CC7)nn6)CC5)CC4)cc3C2=O)C1=O", "note": "(stereo partly shown) [Compound 74, N-((1r,4r)-4-(3-chloro-4-cyanophenoxy)cyclohexyl)-6-(4-((4-(6-fluoro-2-(1-methyl-2,6-dioxopiperidin-3-yl)-1,3-dioxoisoindolin-5-yl)piperazin-1-yl)methyl)piperidin-1-yl)pyridazine-3-carboxamide]", "values": [{"measurement": "DC50", "setting": "[1]", "result": "> 100", "unit": "nM"}]}
{"smiles": "CC(C)N(CC1CCN(c2cnc(C(=O)N[C@H]3CC[C@H](Oc4ccc(C#N)c(Cl)c4)CC3)cn2)CC1)[C@H]1C[C@H](Oc2ccc3c(c2)C(=O)N([C@@H]2C(=O)NC(=O)C[C@H]2C)C3=O)C1", "note": "[Compound 75, N-((1r,4r)-4-(3-chloro-4-cyanophenoxy)cyclohexyl)-5-(4-((isopropyl((1S,3r)-3-((2-((3S,4R)-4-methyl-2,6-dioxopiperidin-3-yl)-1,3-dioxoisoindolin-5-yl)oxy)cyclobutyl)amino)methyl)piperidin-1-yl)pyrazine-2-carboxamide]", "values": [{"measurement": "DC50", "setting": "[1]", "result": "> 100", "unit": "nM"}]}
{"smiles": "CC(C)N(CC1CCN(c2cnc(C(=O)N[C@H]3CC[C@H](Oc4ccc(C#N)c(Cl)c4)CC3)cn2)CC1)[C@H]1C[C@H](Oc2ccc3c(c2)C(=O)N([C@@H]2C(=O)NC(=O)C[C@@H]2C)C3=O)C1", "note": "[Compound 76, N-((1r,4r)-4-(3-chloro-4-cyanophenoxy)cyclohexyl)-5-(4-((isopropyl((1S,3r)-3-((2-((3S,4S)-4-methyl-2,6-dioxopiperidin-3-yl)-1,3-dioxoisoindolin-5-yl)oxy)cyclobutyl)amino)methyl)piperidin-1-yl)pyrazine-2-carboxamide]", "values": [{"measurement": "DC50", "setting": "[1]", "result": "> 100", "unit": "nM"}]}
{"smiles": "COc1cc(O[C@H]2C[C@H](N(CC3CCN(c4cnc(C(=O)N[C@H]5CC[C@H](Oc6ccc(C#N)c(C)c6)CC5)cn4)CC3)C(C)C)C2)cc2c1C(=O)N(C1CCC(=O)NC1=O)C2=O", "note": "(stereo partly shown) [Compound 78, N-((1r,4r)-4-(4-cyano-3-methylphenoxy)cyclohexyl)-5-(4-((((1r,3r)-3-((2-(2,6-dioxopiperidin-3-yl)-7-methoxy-1,3-dioxoisoindolin-5-yl)oxy)cyclobutyl) (isopropyl)amino)methyl)piperidin-1-yl)pyrazine-2-carboxamide]", "values": [{"measurement": "DC50", "setting": "[1]", "result": "< 1", "unit": "nM"}]}
{"smiles": "COc1cc2c(cc1O[C@H]1C[C@H](N(CC3CCN(c4cnc(C(=O)N[C@H]5C(C)(C)[C@H](Oc6cc(C)c(C#N)c(C)c6)C5(C)C)cn4)CC3)C(C)C)C1)C(=O)N(C1CCC(=O)NC1=O)C2=O", "note": "(stereo partly shown) [Compound 199, N-((1r,3r)-3-(4-cyano-3,5-dimethylphenoxy)-2,2,4,4-tetramethylcyclobutyl)-5-(4-((((1r,3r)-3-((2-(2,6-dioxopiperidin-3-yl)-6-methoxy-1,3-dioxoisoindolin-5-yl)oxy)cyclobutyl)(isopropyl)amino)methyl)piperidin-1-yl)pyrazine-2-carboxamide]", "values": [{"measurement": "DC50", "setting": "[2]", "result": "< 1", "unit": "nM"}]}
{"smiles": "CCN(CC1CCN(c2cnc(C(=O)N[C@H]3C(C)(C)[C@H](Oc4cc(C)c(C#N)c(C)c4)C3(C)C)cn2)CC1)[C@H]1C[C@H](Oc2cc(OC)c3c(c2)C(=O)N(C2CCC(=O)NC2=O)C3=O)C1", "note": "(stereo partly shown) [Compound 207, N-((1r,3r)-3-(4-cyano-3,5-dimethylphenoxy)-2,2,4,4-tetramethylcyclobutyl)-5-(4-((((1r,3r)-3-((2-(2,6-dioxopiperidin-3-yl)-7-methoxy-1,3-dioxoisoindolin-5-yl)oxy)cyclobutyl)(ethyl)amino)methyl)piperidin-1-yl)pyrazine-2-carboxamide]", "values": [{"measurement": "DC50", "setting": "[2]", "result": "< 1", "unit": "nM"}]}
{"smiles": "COc1c(O[C@H]2C[C@H](N(CC3CCN(c4cnc(C(=O)N[C@H]5C(C)(C)[C@H](Oc6ccc(C#N)c(Cl)c6)C5(C)C)cn4)CC3)C(C)C)C2)ccc2c1CN(C1CCC(=O)NC1=O)C2=O", "note": "(stereo partly shown) [Compound 227, N-((1r,3r)-3-(3-chloro-4-cyanophenoxy)-2,2,4,4-tetramethylcyclobutyl)-5-(4-((((1r,3r)-3-((2-(2,6-dioxopiperidin-3-yl)-4-methoxy-1-oxoisoindolin-5-yl)oxy)cyclobutyl)(isopropyl)amino)methyl)piperidin-1-yl)pyrazine-2-carboxamide]", "values": [{"measurement": "DC50", "setting": "[2]", "result": "< 1", "unit": "nM"}]}
{"smiles": "COc1cc(O[C@H]2C[C@H](N(CC3CCN(c4ncc(C(=O)N[C@H]5C(C)(C)[C@H](Oc6cc(C)c(C#N)c(C)c6)C5(C)C)cn4)CC3)C(C)C)C2)cc2c1C(=O)N(C1CCC(=O)NC1=O)C2=O", "note": "(stereo partly shown) [compound 79, N-((1r,3r)-3-(4-cyano-3,5-dimethylphenoxy)-2,2,4,4-tetramethylcyclobutyl)-2-(4-((((1r,3r)-3-((2-(2,6-dioxopiperidin-3-yl)-7-methoxy-1,3-dioxoisoindolin-5-yl)oxy)cyclobutyl) (isopropyl)amino)methyl)piperidin-1-yl)pyrimidine-5-carboxamide]", "values": [{"measurement": "DC50", "setting": "[2]", "result": "< 1", "unit": "nM"}]}
{"smiles": "CC(C)N(CC1CCN(c2ncc(C(=O)N[C@H]3C(C)(C)[C@H](Oc4ccc(C#N)c(Cl)c4)C3(C)C)cn2)CC1)[C@H]1C[C@H](Oc2ccc3c(c2)CN(C2CCC(=O)NC2=O)C3=O)C1", "note": "(stereo partly shown) [compound 80, N-((1r,3r)-3-(3-chloro-4-cyanophenoxy)-2,2,4,4-tetramethylcyclobutyl)-2-(4-((((1r,3r)-3-((2-(2,6-dioxopiperidin-3-yl)-1-oxoisoindolin-5-yl)oxy)cyclobutyl) (isopropyl)amino)methyl)piperidin-1-yl)pyrimidine-5-carboxamide]", "values": [{"measurement": "DC50", "setting": "[2]", "result": "< 1", "unit": "nM"}]}
